Assay results taken from ChEMBL document CHEMBL1201862, “PubChem BioAssay data set” (2004).
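Test compounds were applied to cells in 96-well plates for 48 hours at 5 doses. Here, GI50 denotes the concentration required for 50% inhibition of growth.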 Active and inactive are the calls of the source. Rule as the data show it: active = GI50 up to about 1.1 µM and inactive = higher.

Tests used:
Test in all cases: inhibition of tumour cell growth, NCI panel, 48 h
K562 = system: K562
SK-OV-3 = system: SK-OV-3
MDA-MB-435 = system: MDA-MB-435
SNB-19 = system: SNB-19
786-0 = system: 786-0
A549 = system: A549
SF-268 = system: SF-268
Malme-3M = system: Malme-3M
UO-31 = system: UO-31
SF-539 = system: SF-539
HOP-62 = system: HOP-62
DU-145 = system: DU-145
HT-29 = system: HT-29
CAKI-1 = system: CAKI-1
COLO 205 = system: COLO 205
SK-MEL-28 = system: SK-MEL-28
LOX IMVI = system: LOX IMVI
RPMI-8226 = system: RPMI-8226
KM12 = system: KM12
T47D = system: T47D
HOP-92 = system: HOP-92
U-251 = system: U-251
OVCAR-8 = system: OVCAR-8
MOLT-4 = system: MOLT-4
OVCAR-5 = system: OVCAR-5
PC-3 = system: PC-3
SNB-75 = system: SNB-75
ACHN = system: ACHN
OVCAR-3 = system: OVCAR-3
IGROV-1 = system: IGROV-1
UACC-257 = system: UACC-257
CCRF-CEM = system: CCRF-CEM
HCT-15 = system: HCT-15
NCI-H460 = system: NCI-H460
NCI-H522 = system: NCI-H522
SR = system: SR
HCC 2998 = system: HCC 2998
UACC-62 = system: UACC-62
SW-620 = system: SW-620
SK-MEL-5 = system: SK-MEL-5
EKVX = system: EKVX
SF-295 = system: SF-295
TK-10 = system: TK-10
M14 = system: M14
MDA-MB-231 = system: MDA-MB-231
HL-60 = system: HL-60
SN12C = system: SN12C
BT-549 = system: BT-549
RXF 393 = system: RXF 393
A498 = system: A498
SK-MEL-2 = system: SK-MEL-2
NCI-H226 = system: NCI-H226
Hs-578T = system: Hs-578T
MDA-N = system: MDA-N
MCF7 = system: MCF7
NCI-H23 = system: NCI-H23
HCT-116 = system: HCT-116
OVCAR-4 = system: OVCAR-4
NCI/ADR-RES = system: NCI/ADR-RES

## COc1cccc(C2c3cc4c(cc3OC(NNc3ccccc3)C2C)OCO4)c1O (configuration not stated)
K562
  GI50: 2.24 µM (inactive)
SK-OV-3
  GI50: 21.9 µM (inactive)
MDA-MB-435
  GI50: 2.59 µM (inactive)
SNB-19
  GI50: 12.8 µM (inactive)
786-0
  GI50: 2.88 µM (inactive)
A549
  GI50: 3.65 µM (inactive)
SF-268
  GI50: 12.2 µM (inactive)
Malme-3M
  GI50: 4.66 µM (inactive)
UO-31
  GI50: 3.32 µM (inactive)
SF-539
  GI50: 3.18 µM (inactive)
HOP-62
  GI50: 2.51 µM (inactive)
DU-145
  GI50: 5.13 µM (inactive)
HT-29
  GI50: 10.9 µM (inactive)
CAKI-1
  GI50: 3.1 µM (inactive)
COLO 205
  GI50: 8.75 µM (inactive)
SK-MEL-28
  GI50: 8.77 µM (inactive)
LOX IMVI
  GI50: 12.7 µM (inactive)
RPMI-8226
  GI50: 4.18 µM (inactive)
KM12
  GI50: 2.38 µM (inactive)
T47D
  GI50: 6.15 µM (inactive)
HOP-92
  GI50: 12.6 µM (inactive)
U-251
  GI50: 5.61 µM (inactive)
OVCAR-8
  GI50: 2.47 µM (inactive)
MOLT-4
  GI50: 4.17 µM (inactive)
OVCAR-5
  GI50: 9.38 µM (inactive)
PC-3
  GI50: 4.76 µM (inactive)
SNB-75
  GI50: 6.61 µM (inactive)
ACHN
  GI50: 1.5 µM (inactive)
OVCAR-3
  GI50: 2.71 µM (inactive)
IGROV-1
  GI50: 5.47 µM (inactive)
UACC-257
  GI50: 4.57 µM (inactive)
CCRF-CEM
  GI50: 4.68 µM (inactive)
HCT-15
  GI50: 1.62 µM
NCI-H460
  GI50: 2.81 µM (inactive)
NCI-H522
  GI50: 2.36 µM (inactive)
SR
  GI50: 1.87 µM (inactive)
HCC 2998
  GI50: 2.08 µM (inactive)
UACC-62
  GI50: 2.43 µM (inactive)
SW-620
  GI50: 11 µM (inactive)
SK-MEL-5
  GI50: 6.21 µM (inactive)
EKVX
  GI50: 4.88 µM (inactive)
SF-295
  GI50: 2.06 µM (inactive)
TK-10
  GI50: 3.62 µM (inactive)
M14
  GI50: 2.92 µM (inactive)
MDA-MB-231
  GI50: 12.6 µM (inactive)
HL-60
  GI50: 4.48 µM (inactive)
SN12C
  GI50: 11.2 µM (inactive)
BT-549
  GI50: 7.18 µM (inactive)
RXF 393
  GI50: 12.9 µM (inactive)
A498
  GI50: 14 µM (inactive)
SK-MEL-2
  GI50: 8.55 µM (inactive)
NCI-H226
  GI50: 14.5 µM (inactive)
Hs-578T
  GI50: 11.9 µM (inactive)
MDA-N
  GI50: 2.14 µM (inactive)
MCF7
  GI50: 4.67 µM (inactive)
NCI-H23
  GI50: 10.1 µM (inactive)
HCT-116
  GI50: 4.4 µM (inactive)

## CC(=O)OCCCCn1cnc2nc(Nc3ccccc3)nc(Cl)c21
K562
  GI50: 99.1 µM (inactive)
SK-OV-3
  GI50: 97.3 µM (inactive)
MDA-MB-435
  GI50: 34.4 µM (inactive)
SNB-19
  GI50: > 100 µM (inactive)
786-0
  GI50: > 100 µM (inactive)
A549
  GI50: 61.7 µM (inactive)
SF-268
  GI50: > 100 µM (inactive)
Malme-3M
  GI50: 83.4 µM (inactive)
UO-31
  GI50: 40.6 µM (inactive)
SF-539
  GI50: > 100 µM (inactive)
HOP-62
  GI50: 62.7 µM (inactive)
HT-29
  GI50: 91.6 µM (inactive)
CAKI-1
  GI50: 14 µM (inactive)
COLO 205
  GI50: > 100 µM (inactive)
SK-MEL-28
  GI50: > 100 µM (inactive)
LOX IMVI
  GI50: 67.5 µM (inactive)
RPMI-8226
  GI50: > 100 µM (inactive)
KM12
  GI50: 91.4 µM (inactive)
T47D
  GI50: 56.9 µM (inactive)
HOP-92
  GI50: 51.4 µM (inactive)
U-251
  GI50: > 100 µM (inactive)
OVCAR-8
  GI50: > 100 µM (inactive)
MOLT-4
  GI50: 66.5 µM (inactive)
PC-3
  GI50: 42.5 µM (inactive)
SNB-75
  GI50: 50.7 µM (inactive)
ACHN
  GI50: 60.7 µM (inactive)
OVCAR-3
  GI50: 55.1 µM (inactive)
IGROV-1
  GI50: > 100 µM (inactive)
UACC-257
  GI50: 58.7 µM (inactive)
CCRF-CEM
  GI50: 78.2 µM (inactive)
HCT-15
  GI50: 73.1 µM
NCI-H460
  GI50: > 100 µM (inactive)
OVCAR-4
  GI50: 65.3 µM (inactive)
SR
  GI50: > 100 µM (inactive)
HCC 2998
  GI50: 85.3 µM (inactive)
UACC-62
  GI50: 33.7 µM (inactive)
SW-620
  GI50: > 100 µM (inactive)
SK-MEL-5
  GI50: 42.2 µM (inactive)
EKVX
  GI50: > 100 µM (inactive)
SF-295
  GI50: 57.1 µM (inactive)
TK-10
  GI50: > 100 µM (inactive)
M14
  GI50: 59.6 µM (inactive)
MDA-MB-231
  GI50: 35.2 µM (inactive)
HL-60
  GI50: > 100 µM (inactive)
SN12C
  GI50: 90.6 µM (inactive)
NCI/ADR-RES
  GI50: 42.4 µM (inactive)
BT-549
  GI50: 26.9 µM (inactive)
RXF 393
  GI50: 68.7 µM (inactive)
A498
  GI50: 73.1 µM (inactive)
SK-MEL-2
  GI50: > 100 µM (inactive)
NCI-H226
  GI50: 57 µM (inactive)
Hs-578T
  GI50: 36.2 µM (inactive)
MDA-N
  GI50: 31.2 µM (inactive)
MCF7
  GI50: > 100 µM (inactive)
HCT-116
  GI50: 72.4 µM (inactive)
